Test results reported in US20210309669A1, “Heterocyclic Spiro Compounds As MAGL Inhibitors” (Pfizer Inc., priority 2018, published 2021).

What was measured:
[1] = Mouse subcutaneous neuropharmacokinetics study; type: in vivo, Male C57Bl6 mice; settings: male, C57Bl6, mouse, brain (cerebellum homogenate) and plasma, sc, subcutaneous dose of 1 mg/kg, read-out: Mouse Cb,u/Cp,u
Description: The neuropharmacokinetics studies in mouse were conducted at Wuxi (Shanghai, China) with bioanalysis conducted at BioDuro (Beijing, China) with the exception of the Comparative-compound 3, which bioanalysis was conducted at Wuxi. All in vivo studies were conducted in accordance with regulations and established guidelines using protocols reviewed and approved by the Pfizer Worldwide Research and Development (WRD, or other) Institutional Animal Care and Use Committee.
Male C57Bl6 mice were maintained on a 12-h light/dark cycle in a temperature- and humidity-controlled environment with free access to food and water. The test compounds (Examples 1 and 2 and Comparative Compounds 1-3) were administered as a subcutaneous dose of 1 mg/kg which was delivered in a dose volume of 10 mL/kg. The dose solution for all compounds was formulated in 5% DMSO/5% cremophor/90% saline. Blood and brain samples were collected at 0.5, 1, 2, 4, 8, 12, and 24 h post-dose (n=3 per time point). Blood samples were collected into tubes containing sodium fluoride and 4-(2-aminoethyl)benzenesulfonyl fluoride hydrochloride (AEBSF; final concentration 2 mg/mL) to inhibit hydrolase activity and placed on wet ice. Following centrifugation to afford plasma, the samples were transferred to polypropylene tubes and stored frozen at −20° C. to −80° C. until analysis. Immediately following blood collection the mice were euthanized by cervical dislocation and the brains were removed. The cerebellum was immediately frozen in liquid nitrogen and stored at −80° C. until analysis.
Cerebellum samples were thawed, diluted 1:4 (w/v) with water, and homogenized using an H-speed dispersator. Standards and controls were prepared in a similar manner using a brain homogenate prepared from untreated animals. The plasma standard curves were generated with species specific plasma. All plasma and brain homogenate samples were quantified via LC/MS-MS using multiple reaction monitoring with non-validated methods.
Equilibrium dialysis using standard procedures [See Di et al., “Species independence in brain tissue binding using brain homogenates”; Drug Metab Dispos 39:1270-1277, 2011) were used for determination of the unbound fraction of the test compounds (Examples 1 and 2 and Comparative Compounds 1-3) in mouse plasma (fu,p; see Di et al., “impact of recovery on fraction unbound using equilibrium dialysis”; J Pharm Sci 101:1327-1335, 2012) and unbound fraction in rat brain homogenate (fu,b; see Di et al., “Species independence in brain tissue binding using brain homogenates”; Drug Metab Dispos 39:1270-1277, 2011). The determination of the unbound fraction in plasma also included the addition of AEBSF at a final concentration of 2 mg/mL to the incubation.
The pharmacokinetic parameters were computed by non-compartmental analysis using Watson Bioanalytical LIMS version 7.5. The AUC values were calculated using the linear trapezoidal method for both brain and plasma. Measured total plasma (Cp) and brain (Cb; assuming brain tissue density of 1 g/mL) concentrations were converted to unbound (free) values using the matrix specific binding factor (fu, p or fu,b) to determine free plasma (Cp,u) and free brain (Cb,u) values. All neurocompartmental ratios (Cb,u/Cp,u) were calculated through use of AUC values with the exception of Comparative Compounds 1 and 2 which used the mean of individual animal values due to insufficient data to calculate an AUC value.

[2] = In vitro intrinsic clearance in human liver microsomes (HLM); type: in vitro ADME; settings: pH 7.4, 1 μM substrate, NADPH, 37° C., read-out: HLM CLint, app
Description: Test Compounds (Example 1-3 and Comparative-Compounds 1-4) were prepared as solutions in DMSO. The final concentration of DMSO in the incubation was <0.1% (v/v). […] (all final concentrations) in a 384-well plate. The reaction mixture was pre-warmed at 37° C. for 10 min prior to initiation of the incubation. The incubation was quenched with acetonitrile containing internal standards at the following time points: 1, 4, 7, 12, 20, 25, 45, and 60 min (individual incubation plates per time point) with a subsequent addition of water. The samples were vortexed followed by centrifugation and the supernatant was analyzed by LC/MS-MS using multiple reaction monitoring. For control experiments, NADPH was omitted from the incubations.
The microsomal t½ (min) was obtained from a log-linear plot of the substrate depletion versus incubation time and was scaled to hepatic intrinsic clearance (CLint,app (μL/min/mg protein) using the following equation: […]

[3] = Dog intravenous pharmacokinetic study; type: in vivo, Male beagle dogs; settings: male, beagle, IV dose of 1 mg/kg, plasma, read-out: Dog t1/2 (converted)
Description: The pharmacokinetic studies in dog were conducted at Pfizer Global Research and Development (Groton, Conn.). All in vivo studies were conducted in accordance with regulations and established guidelines using protocols reviewed and approved by the Pfizer Worldwide Research and Development (WRD, or other) Institutional Animal Care and Use Committee.
Male beagle dogs were fasted overnight with water provided ad libitium. The dogs were fed at approximately 2-4 h post-dose. The dogs (n=2) were administered an IV bolus via the cephalic vein. Compounds of Examples 1-3 were tested along with the following four comparative compounds.
All test compounds were administered an IV dose of 1 mg/kg of the specified compound which was delivered in a dose volume of 0.5 mL/kg. The dose solution was formulated in 10% PEG400/90% of 23% (w/v) HPBCD in de-ionized water for the following test compounds: Example 1, Example 2, and Example 3; in 20% SBECD (sulfobutyl either β-cyclodextrin) for Comparative-Compound 3; in 23% (w/v) HPBCD (hydroxypropyl β-cyclodextrin) in water for Comparative Compound 2; in 12.5.% SBECD in water with 0.25% 0.1N HCl to pH 5 for Comparative Compound 1. Serial blood samples were collected from each dog via the jugular vein prior to dose administration and at the following time points post-dose: 0.083, 0.25, 0.5, 1, 2, 4, 7, and 24 h for all compounds with an additional time point of 0.016 h collected for Comparative Compound 1 only. Blood samples were collected into tubes containing EDTA and placed on wet ice. Following centrifugation to afford plasma, the samples were transferred to polypropylene tubes and stored frozen at −20° C. to −80° C. until analysis.
All plasma samples were quantified via liquid chromatography/tandem mass spectrometry (LC/MS-MS) using multiple reaction monitoring with non-validated methods. The plasma standard curves were generated with species specific plasma. Pharmacokinetic parameters were determined by non-compartmental analysis using Watson LIMS software version 7.4 (Thermo Fisher Scientific, Waltham, Mass.). The area under the concentration versus time curve (AUC) was calculated from the first time point to the last time point with measurable drug concentration using a linear trapezoidal rule. The area under the concentration versus time curve from the first time point to time infinity (AUC(0-inf)) was calculated by extrapolation from the time point where the last measurable concentration occurred to time infinity by dividing the observed concentration at the last time point by the elimination rate constant determined using linear regression of plasma concentration versus time data. The plasma clearance (CLp) was calculated by the equation CLp=dose/AUC(0-inf). The elimination half-life (t½) was calculated using the following equation t1/2=ln 2/k; k is equal to the rate constant of elimination calculated by the least squares of the log transformed data.

[4] = In vitro intrinsic clearance in human hepatocytes; type: in vitro ADME; settings: 1 μM substrate, human hepatocytes 0.5 million viable cells per mL, 37° C.
Description: Test Compounds (Example 1-3 and Comparative-Compounds 1-4) were prepared as solutions in DMSO at 3 mM which were then diluted in media containing WEM. The final concentration of DMSO in the incubation was 0.03% (v/v). The in vitro half-life (t½) of each compound was determined in incubations containing substrate (1 μM), human hepatocytes (0.5 million viable cells per mL final concentration) in media containing WEM, 50 mM HEPES buffer (pH 7.4), and 26 mM sodium bicarbonate at 37° C. (all final concentrations) in a 96-well plate. The reaction mixture was pre-warmed at 37° C. for 30 min prior to the initiation of the incubation. The incubation was quenched with acetonitrile containing internal standards at the following time points: 0, 5, 15, 30, 60, 120, and 240 min (individual incubation plates per time point). The samples were vortexed followed by centrifugation. An aliquot of supernatant was transferred to a clean 96-well plate and analyzed by LC/MS-MS using multiple reaction monitoring. For control experiments, hepatocytes were omitted from the incubations.
The hepatocyte t½ (min) was obtained from a log-linear plot of the substrate depletion versus incubation time and was scaled to hepatic intrinsic clearance (CLint,app (μL/min/million cells) using the following equation: […]

| SMILES | Kp,uu (unbound brain/unbound plasma ratio) [1] | microsomal CLint at 1 μM [2] | half-life [3] | HHEPs CLint, app [4] |
| --- | --- | --- | --- | --- |
| CN([C@H]1COC2(CCN(C(=O)O[C@H](CO)C(F)(F)F)CC2)C1)S(=O)(=O)CC1CC1 [Comparative-Compound 1, (2R)-1,1,1-trifluoro-3-hydroxypropan-2-yl (3R)-3-{[(cyclopropylmethyl)sulfonyl](methyl)amino}-1-oxa-8-azaspiro[4.5]decane-8-carboxylate] | 0.18 | < 12.5 µL/min/mg | 0.5 h | 5.5 μL/min/million |
| CN([C@H]1COC2(CCN(C(=O)O[C@H](CO)C(F)(F)F)CC2)C1)S(=O)(=O)C1CC1 [Comparative-Compound 2, (2R)-1,1,1-trifluoro-3-hydroxypropan-2-yl (3R)-3-[(cyclopropylsulfonyl)-(methyl)amino]-1-oxa-8-azaspiro[4.5]decane-8-carboxylate] | 0.29 | < 8 µL/min/mg | 1.31 h | <3.52 μL/min/million |
| CN([C@H]1COC2(CCN(C(=O)O[C@H](CO)C(F)(F)F)CC2)C1)S(=O)(=O)c1ccccc1 [Comparative-Compound 3, (2R)-1,1,1-trifluoro-3-hydroxypropan-2-yl (3R)-3-[methyl(phenylsulfonyl)-amino]-1-oxa-8-azaspiro[4.5]decane-8-carboxylate] | 0.51 | 14.8 µL/min/mg | 5 h | 10.6 μL/min/million |
